For data set [1], the system named is BMDM. Description: Anti-osteoclastogenesis activity in C57BL/6 mouse BMDM cells assessed as inhibition of RANKL-induced osteoclastogenesis at 1 uM incubated for 7 days in the presence of M-CSF by TRAP-staining based microscopic analysis relative to control. Conditions: C57BL/6, BMDM, 168 h, time 7 day. The format is functional.
Data set [2] relates to BMDM. The experiment in a line: Anti-osteoclastogenesis activity in C57BL/6 mouse BMDM cells assessed as inhibition of RANKL-induced osteoclastogenesis at 10 uM incubated for 7 days in the presence of M-CSF by TRAP-staining based microscopic analysis relative to control. The format is functional. The settings on record: C57BL/6, BMDM, 168 h, time 7 day.
For data set [3], the target named is T1, Kelch-like ECH-associated protein 1 (Homo sapiens, UniProt Q14145). Description: Binding affinity to recombinant human Keap1 assessed as equilibrium dissociation constant by SPR analysis. For orientation: Surface plasmon resonance follows binding to a sensor surface in real time, without labels.
Data set [4] can be described thus: Cytotoxicity against C57BL/6 mouse BMDM cells incubated for 48 hrs by MTT assay. Conditions: BMDM cells (bone marrow-derived macrophages). The format is toxicity, cell-based. In general terms: Tetrazolium assays rely on reduction of a dye to a coloured formazan, in cell work by metabolically active cells.
In data set [5] the target is T1, Kelch-like ECH-associated protein 1. Description: Binding affinity to recombinant human Keap1 by SPR analysis.

From ChEMBL document CHEMBL5331068, “Briarane-type diterpenoids, the inhibitors of osteoclast formation by interrupting Keap1-Nrf2 interaction and activating Nrf2 pathway” (Eur J Med Chem, 2023) come the findings set out here.

Active and inactive are the calls of the source. The rule behind the calls is not given here.

T1 sequence (Q14145 whole entry): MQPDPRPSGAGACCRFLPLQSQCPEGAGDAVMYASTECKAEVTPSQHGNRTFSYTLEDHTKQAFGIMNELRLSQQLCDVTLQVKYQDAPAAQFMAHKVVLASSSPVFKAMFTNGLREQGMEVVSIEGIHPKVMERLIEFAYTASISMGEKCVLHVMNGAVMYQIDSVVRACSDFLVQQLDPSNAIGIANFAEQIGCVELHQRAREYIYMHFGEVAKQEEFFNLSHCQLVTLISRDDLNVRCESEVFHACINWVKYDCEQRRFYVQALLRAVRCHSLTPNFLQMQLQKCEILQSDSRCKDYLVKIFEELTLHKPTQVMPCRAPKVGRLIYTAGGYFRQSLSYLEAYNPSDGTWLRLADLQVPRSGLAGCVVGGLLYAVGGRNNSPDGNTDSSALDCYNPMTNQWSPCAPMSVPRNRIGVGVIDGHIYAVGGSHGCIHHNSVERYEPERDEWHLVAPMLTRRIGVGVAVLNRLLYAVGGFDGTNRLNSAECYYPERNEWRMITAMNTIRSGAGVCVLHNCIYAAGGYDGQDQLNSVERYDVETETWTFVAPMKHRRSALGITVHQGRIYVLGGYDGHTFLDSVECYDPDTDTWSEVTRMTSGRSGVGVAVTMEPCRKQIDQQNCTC

Broadly, the inhibition is the share of the control response that was lost under treatment. Turning to `O=P(O)(O)C(O)(Cn1ccnc1)P(=O)(O)O` [ZOLEDRONIC ACID ANHYDROUS], the inhibition at 1 µM with BMDM [1] is 87.1%.

In general, Kd refers to the constant that tells how readily two partners part at equilibrium. The term CC50 denotes the concentration giving 50% cytotoxicity. For `CCOCC1=C/[C@@H]2OC(=O)[C@H](C)[C@@]2(O)[C@@H](OC(C)=O)[C@H]2[C@@]3(CO3)[C@H](OC(C)=O)C[C@H](OC(=O)CC(C)C)[C@]2(C)[C@@H](OC(C)=O)/C=C\1`, the inhibition at 10 µM with BMDM [2] came out at 38.4%. The Kd in data set [3] is greater than 100 µM. The same compound had a CC50 at 48 h in data set [4] greater than 50 µM.

For `CC(=O)O[C@H]1CC[C@](O)(CO)[C@@H]2[C@H](OC(C)=O)[C@@]3(O)[C@H](/C=C(CO)\C=C/[C@H](OC(=O)COC(=O)CC(C)C)[C@@]12C)OC(=O)[C@@H]3C`, the result in data set [5] was inactive. In the data set with BMDM [2], the inhibition at 10 µM was 33.7%. In data set [3], the Kd is greater than 100 µM. Besides, the cytotoxic concentration (CC50) at 48 h in data set [4] is greater than 50 µM.

On to `CC(=O)O[C@H]1[C@@H](OC(=O)CC(C)C)[C@](O)(CO)[C@@H]2[C@H](OC(C)=O)[C@@]3(O)[C@H](/C=C(CO)\C=C/[C@H](OC(=O)COC(=O)CC(C)C)[C@@]2(C)[C@H]1OC(C)=O)OC(=O)[C@@H]3C`, for which the outcome in data set [5] was inactive. The inhibition at 10 µM in the data set with BMDM [2] was determined as 30.8%. The CC50 at 48 h in data set [4] was greater than 50 µM.

As for `CCOCC1=C/[C@@H]2OC(=O)[C@H](C)[C@@]2(O)[C@@H](OC(C)=O)[C@H]2[C@@]3(CO3)[C@H](OC(C)=O)C[C@H](OC(C)=O)[C@]2(C)[C@@H](OC(C)=O)/C=C\1`, the inhibition at 10 µM in the data set on BMDM [2] is 88.3%. For the same compound, the dissociation constant (Kd) in data set [3] came out at 6.2 µM. In data set [4], this compound showed a CC50 at 48 h greater than 50 µM.

For `CC(=O)O[C@H]1[C@@H](O)[C@](O)(CO)[C@@H]2[C@H](OC(C)=O)[C@@]3(O)[C@H](/C=C(COC(=O)CC(C)C)\C=C/[C@H](OC(C)=O)[C@@]2(C)[C@H]1OC(C)=O)OC(=O)[C@@H]3C`, the outcome in data set [5] was inactive. Moreover, the inhibition at 10 µM in the data set with BMDM [2] came out at 100%. Besides, the CC50 at 48 h in data set [4] is greater than 50 µM.

`CC(=O)O[C@H]1[C@@H](O)[C@](O)(CO)[C@@H]2[C@H](OC(C)=O)[C@@]3(O)[C@H](/C=C(CO)\C=C/[C@H](OC(C)=O)[C@@]2(C)[C@H]1OC(=O)CC(C)C)OC(=O)[C@@H]3C`: the result in data set [5] was inactive. In the data set on BMDM [2], the inhibition at 10 µM was 57.6%. The compound further showed a CC50 at 48 h in data set [4] greater than 50 µM.

As to `CC(=O)O[C@H]1/C=C\C(CO)=C/[C@@H]2OC(=O)[C@H](C)[C@@]2(O)[C@@H](OC(C)=O)[C@H]2[C@@](O)(CO)CC[C@H](OC(C)=O)[C@]12C`, the inhibition at 10 µM with BMDM [2] amounted to 32%. Further, the Kd in data set [3] turned out to be 6.6 µM. Besides, in data set [4], the CC50 at 48 h was greater than 50 µM.

In the case of `C=C1CC[C@H](OC(C)=O)[C@@]2(C)[C@@H](OC(C)=O)C[C@@H](OC(C)=O)[C@]3(CO3)[C@@H]2[C@H](OC(C)=O)[C@]2(O)[C@@H](C)C(=O)O[C@H]2[C@H]1Cl`, the result in data set [5] was Active. Also, the inhibition at 10 µM in the data set on BMDM [2] stood at 13.5%. In data set [4], this compound displayed a CC50 at 48 h greater than 50 µM.

For `C=C1[C@H](OC(=O)CC(C)C)C[C@H](OC(C)=O)[C@@]2(C)[C@@H](OC(C)=O)C[C@@H](OC(C)=O)[C@]3(CO3)[C@@H]2[C@H](OC(C)=O)[C@]2(O)[C@@H](C)C(=O)O[C@H]2[C@H]1Cl`, the outcome in data set [5] was Active. In addition, in the data set on BMDM [2], the inhibition at 10 µM was found to be 100%. This compound showed a CC50 at 48 h in data set [4] greater than 50 µM.

For the compound `CC(=O)O[C@H]1[C@@H](OC(=O)CC(C)C)[C@](O)(CO)[C@@H]2[C@H](OC(C)=O)[C@@]3(O)[C@H](/C=C(CO)\C=C/[C@H](OC(C)=O)[C@@]2(C)[C@H]1OC(C)=O)OC(=O)[C@@H]3C`, the outcome in data set [5] was inactive. In the data set on BMDM [2], the inhibition at 10 µM is 34.8%. For the same compound, the cytotoxic concentration (CC50) at 48 h in data set [4] is greater than 50 µM.

In the case of `C=C1[C@H]2O[C@]3([C@@H](C)C(=O)O[C@H]3[C@H]1Cl)[C@@H](OC(C)=O)[C@H]1[C@@](O)(CCl)CC[C@H](OC(C)=O)[C@]1(C)[C@@H](OC(C)=O)[C@@H]2OC(C)=O`, the result in data set [5] was Active. In addition, the inhibition at 10 µM in the data set on BMDM [2] is 98.8%. Moreover, in data set [4], the CC50 at 48 h was greater than 50 µM.
